Among the data in patent US20260078135A1, “POLYCYCLIC QUINAZOLINES FOR INHIBITION OF ERBB2” (Enliven Inc., priority 2022, published 2026) are GI50 and IC50 values, retold here.

One experiment addresses Ba/F3 ERBB2 YVMA (Homo sapiens, UniProt P04626, DUP772-775, cells depend on it). Kind of experiment: Cell viability assay (CellTiter Glo), Ba/F3 cells engineered to express ERBB2 YVMA. Type of experiment: cell-based, mouse. Particulars: Ba/F3 cells expressing human ERBB2 YVMA mutant, 72 hours, read-out: Ba/F3 ERBB2 YVMA, IC50. In short, it runs like this: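 Ba/F3 cells (IL-3-independent via stable retroviral human ERBB2 YVMA) seeded 3000/well and given compound from about 10 μM to 0.51 nM in three-fold steps, DMSO ≤0.1%, 72 h at 37° C. Viability by CellTiter Glo luminescence, normalized to DMSO and media-only controls. Sigmoidal nonlinear fit.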
On the technique in general: Cellular ATP, detected with luciferase, serves as a proxy for viable cell number.

The target in experiment [1] is T1, phosphorylated ERBB2 (pERBB2) (Homo sapiens, UniProt P04626).
T1 construct: endogenous in cells; host or cells: BT-474
T1 sequence (P04626 23-1255): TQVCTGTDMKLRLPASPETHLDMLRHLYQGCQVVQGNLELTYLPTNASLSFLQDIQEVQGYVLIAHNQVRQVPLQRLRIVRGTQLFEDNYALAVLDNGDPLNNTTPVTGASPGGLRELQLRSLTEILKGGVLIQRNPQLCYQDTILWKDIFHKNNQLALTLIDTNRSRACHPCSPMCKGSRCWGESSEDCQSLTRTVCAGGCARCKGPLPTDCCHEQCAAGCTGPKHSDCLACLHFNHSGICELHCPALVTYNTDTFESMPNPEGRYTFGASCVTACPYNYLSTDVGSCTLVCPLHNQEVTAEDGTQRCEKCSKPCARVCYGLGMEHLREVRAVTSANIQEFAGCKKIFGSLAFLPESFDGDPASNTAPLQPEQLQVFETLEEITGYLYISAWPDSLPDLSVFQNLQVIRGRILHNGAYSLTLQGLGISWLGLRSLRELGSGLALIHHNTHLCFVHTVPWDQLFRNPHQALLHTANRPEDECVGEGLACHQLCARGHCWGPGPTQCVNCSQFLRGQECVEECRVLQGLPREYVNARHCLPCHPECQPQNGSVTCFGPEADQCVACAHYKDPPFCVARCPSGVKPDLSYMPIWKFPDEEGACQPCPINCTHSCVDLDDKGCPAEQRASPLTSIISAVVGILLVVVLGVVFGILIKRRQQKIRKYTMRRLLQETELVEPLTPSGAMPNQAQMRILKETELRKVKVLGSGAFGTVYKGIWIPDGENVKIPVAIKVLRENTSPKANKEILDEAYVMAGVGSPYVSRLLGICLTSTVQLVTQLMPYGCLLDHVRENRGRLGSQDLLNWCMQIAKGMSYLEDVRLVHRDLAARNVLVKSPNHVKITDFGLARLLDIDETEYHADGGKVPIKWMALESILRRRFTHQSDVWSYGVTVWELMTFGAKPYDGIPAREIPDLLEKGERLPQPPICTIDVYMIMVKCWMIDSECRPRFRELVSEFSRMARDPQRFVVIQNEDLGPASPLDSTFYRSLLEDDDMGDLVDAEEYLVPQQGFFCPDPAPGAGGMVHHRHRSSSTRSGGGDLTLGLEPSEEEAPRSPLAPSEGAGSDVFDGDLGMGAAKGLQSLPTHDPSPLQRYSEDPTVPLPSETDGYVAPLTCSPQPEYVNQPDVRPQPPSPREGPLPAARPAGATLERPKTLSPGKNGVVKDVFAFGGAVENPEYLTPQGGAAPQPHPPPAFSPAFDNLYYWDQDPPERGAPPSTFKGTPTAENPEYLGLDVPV
Kind of experiment: Detection of phosphorylated ERBB2 (pERBB2) by ELISA in BT-474 cells. Format: cell-based. Particulars: four hour incubation. In short, it runs like this: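 BT-474 cells were treated with compounds (fourfold dilutions, 10 μM to 0.01 nM final) for 4 h at 37 °C, then lysed. pERBB2 in lysates was quantified by ELISA with an HRP anti-phosphotyrosine detection antibody and TMB read at 450 nm; % relative activity was normalized to no-cell and 0.1% DMSO controls.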
A general note: An ELISA detects its analyte on a solid surface through an enzyme-linked reagent.

In experiment [2] the target is T2, phosphorylated EGFR (pEGFR) (Homo sapiens, UniProt P00533).
T2 construct: performed to measure phosphorylated EGFR levels using A431 cells (10% FBS); endogenous in cells; host or cells: A431
T2 sequence (P00533 25-1210): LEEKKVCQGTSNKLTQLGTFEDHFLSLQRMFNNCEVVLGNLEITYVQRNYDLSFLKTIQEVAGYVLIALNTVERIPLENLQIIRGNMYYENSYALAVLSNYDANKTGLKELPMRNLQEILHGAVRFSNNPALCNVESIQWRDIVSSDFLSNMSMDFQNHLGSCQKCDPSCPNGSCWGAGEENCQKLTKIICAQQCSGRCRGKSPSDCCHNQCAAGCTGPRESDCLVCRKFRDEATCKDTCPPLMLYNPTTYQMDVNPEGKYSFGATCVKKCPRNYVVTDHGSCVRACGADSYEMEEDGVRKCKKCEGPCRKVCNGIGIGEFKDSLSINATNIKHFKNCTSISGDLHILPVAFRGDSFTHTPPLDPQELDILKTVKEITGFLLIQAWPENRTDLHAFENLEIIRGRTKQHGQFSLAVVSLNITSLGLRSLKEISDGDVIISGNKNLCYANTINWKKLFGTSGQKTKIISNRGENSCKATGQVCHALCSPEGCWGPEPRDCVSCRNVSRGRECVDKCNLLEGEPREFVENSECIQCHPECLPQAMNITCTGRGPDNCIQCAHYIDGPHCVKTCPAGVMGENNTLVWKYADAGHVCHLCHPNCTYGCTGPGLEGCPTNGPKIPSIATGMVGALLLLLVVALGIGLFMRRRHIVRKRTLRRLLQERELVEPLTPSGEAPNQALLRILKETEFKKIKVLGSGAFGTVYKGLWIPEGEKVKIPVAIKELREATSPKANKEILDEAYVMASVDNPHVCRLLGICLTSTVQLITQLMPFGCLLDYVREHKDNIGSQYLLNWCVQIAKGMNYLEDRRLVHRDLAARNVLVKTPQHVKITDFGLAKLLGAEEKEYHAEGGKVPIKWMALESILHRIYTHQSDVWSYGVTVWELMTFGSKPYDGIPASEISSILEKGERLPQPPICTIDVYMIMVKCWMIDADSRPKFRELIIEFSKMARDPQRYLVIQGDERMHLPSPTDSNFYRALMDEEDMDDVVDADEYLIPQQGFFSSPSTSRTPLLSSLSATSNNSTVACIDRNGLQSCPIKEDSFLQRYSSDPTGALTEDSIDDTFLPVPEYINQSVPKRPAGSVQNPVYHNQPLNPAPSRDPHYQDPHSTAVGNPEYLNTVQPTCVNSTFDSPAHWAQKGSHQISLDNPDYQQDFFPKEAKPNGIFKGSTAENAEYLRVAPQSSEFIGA
Kind of experiment: Detection of phosphorylated EGFR (pEGFR) by AlphaLISA in EGF-stimulated A431 cells. Format: cell-based. Particulars: A431 cells (10% FBS), 4 hours incubation, EGF 30 ng/mL for 10 minutes. In short, it runs like this:
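pEGFR was quantified by AlphaLISA in lysates of A431 cells (10% FBS) given a 10 min pulse of EGF at 30 ng/mL after 4 h compound exposure at 37 °C. IC50 came from a four-parameter fit of % inhibition between DMSO and staurosporine controls.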
In general terms: In Alpha technology, singlet oxygen from a donor bead excites a nearby acceptor bead.

Each structure is given as a SMILES string. Bounds are passed on as bounds.

Chain of Ba/F3 ERBB2 YVMA (P04626 with tags, fused parts or gaps DUP772-775): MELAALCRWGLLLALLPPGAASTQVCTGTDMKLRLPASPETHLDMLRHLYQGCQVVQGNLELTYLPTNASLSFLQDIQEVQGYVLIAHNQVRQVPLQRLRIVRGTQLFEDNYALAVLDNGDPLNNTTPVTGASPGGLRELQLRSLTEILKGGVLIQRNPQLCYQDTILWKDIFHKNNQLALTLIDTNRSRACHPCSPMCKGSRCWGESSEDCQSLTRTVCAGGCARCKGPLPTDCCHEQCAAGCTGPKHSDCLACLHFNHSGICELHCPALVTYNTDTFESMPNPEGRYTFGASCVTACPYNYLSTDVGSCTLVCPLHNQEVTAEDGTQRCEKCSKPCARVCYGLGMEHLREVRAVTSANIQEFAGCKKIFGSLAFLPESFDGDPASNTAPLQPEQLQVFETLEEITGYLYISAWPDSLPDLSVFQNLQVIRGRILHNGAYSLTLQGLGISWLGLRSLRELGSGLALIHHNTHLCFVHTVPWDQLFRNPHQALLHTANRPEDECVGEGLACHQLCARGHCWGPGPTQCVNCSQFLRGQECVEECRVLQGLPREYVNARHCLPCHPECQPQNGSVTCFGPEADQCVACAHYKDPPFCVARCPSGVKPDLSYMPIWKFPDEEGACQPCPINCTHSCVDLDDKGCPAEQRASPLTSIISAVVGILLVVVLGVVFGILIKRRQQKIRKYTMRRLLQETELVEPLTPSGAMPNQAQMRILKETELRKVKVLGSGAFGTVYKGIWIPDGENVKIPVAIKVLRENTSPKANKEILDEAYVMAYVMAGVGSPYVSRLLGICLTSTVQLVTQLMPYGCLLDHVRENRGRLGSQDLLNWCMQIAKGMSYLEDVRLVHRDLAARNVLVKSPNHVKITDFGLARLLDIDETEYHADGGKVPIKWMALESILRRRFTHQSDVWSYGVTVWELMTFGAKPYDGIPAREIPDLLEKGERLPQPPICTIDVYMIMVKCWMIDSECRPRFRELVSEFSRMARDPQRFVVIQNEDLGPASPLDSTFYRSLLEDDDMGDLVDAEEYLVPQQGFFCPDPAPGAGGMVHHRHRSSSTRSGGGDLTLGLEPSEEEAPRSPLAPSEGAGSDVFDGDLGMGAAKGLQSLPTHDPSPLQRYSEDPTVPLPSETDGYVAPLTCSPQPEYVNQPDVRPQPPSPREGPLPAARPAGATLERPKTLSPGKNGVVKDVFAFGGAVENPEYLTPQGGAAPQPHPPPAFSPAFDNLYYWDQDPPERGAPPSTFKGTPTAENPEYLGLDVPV

Usually IC50 stands for the point on the concentration scale where inhibition reaches its midpoint. `Cc1cc(Nc2ncnc3cnc4c(c23)OC[C@H]2CN(C(=O)/C=C/CN(C)C)CCN42)c(F)cc1Oc1ccn2ncnc2c1` [Compound 117, (R,E)-1-(4-((4-([1,2,4]triazolo[1,5-a]pyridin-7-yloxy)-2-fluoro-5-methylphenyl)amino)-6a,7,9,10-tetrahydropyrazino[1,2-d]pyrimido[5′,4′:4,5]pyrido[3,2-b][1,4]oxazin-8(6H)-yl)-4-(dimethylamino)but-2-en-1-one]: the GI50 on Ba/F3 ERBB2 YVMA was 6.57 nM. The IC50 came out at 13.1 nM in experiment [1] and 1510 nM in experiment [2].

For `CN(C)C/C=C/C(=O)N1CCN2c3ccc4ncnc(Nc5ccc(Oc6ccn7ncnc7c6)c(F)c5)c4c3OC[C@H]2C1` [Compound 118, (R,E)-1-(4-((4-([1,2,4]triazolo[1,5-a]pyridin-7-yloxy)-3-fluorophenyl)amino)-6a,7,9,10-tetrahydropyrazino[1′,2′:4,5][1,4]oxazino[2,3-f]quinazolin-8(6H)-yl)-4-(dimethylamino)but-2-en-1-one], the GI50 at Ba/F3 ERBB2 YVMA turned out to be 35.7 nM. Besides, the IC50 came to 25 nM in experiment [1] and 3120 nM in experiment [2].

Take `CN(C)C/C=C/C(=O)N1CCN2c3ccc4ncnc(Nc5ccc(Oc6ccn7ncnc7c6)cc5F)c4c3OC[C@H]2C1` [Compound 119, (R,E)-1-(4-((4-([1,2,4]triazolo[1,5-a]pyridin-7-yloxy)-2-fluorophenyl)amino)-6a,7,9,10-tetrahydropyrazino[1′,2′:4,5][1,4]oxazino[2,3-f]quinazolin-8(6H)-yl)-4-(dimethylamino)but-2-en-1-one]: on Ba/F3 ERBB2 YVMA, the GI50 was determined as 11.7 nM. For the same compound, the IC50 turned out to be 29 nM in experiment [1] and 1950 nM in experiment [2].

With `Cc1cc(Nc2ncnc3cnc4c(c23)OC[C@H]2CN(C)CCN42)ccc1Oc1ccc2c(c1)ncn2C` [Compound 120, (R)-8-methyl-N-(3-methyl-4-((1-methyl-1H-benzo[d]imidazol-5-yl)oxy)phenyl)-6,6a,7,8,9,10-hexahydropyrazino[1,2-d]pyrimido[5′,4′:4,5]pyrido[3,2-b][1,4]oxazin-4-amine], the GI50 at Ba/F3 ERBB2 YVMA is 44.3 nM. In addition, the results for the IC50 in experiment [1] and in experiment [2] were 26.4 nM and greater than 10000 nM, respectively.

As for `Cc1cc(Nc2ncnc3cc4c(cc23)N2CCOC[C@H]2CO4)ccc1Oc1ccc2c(c1)ncn2C` [Compound 121, (S)—N-(3-methyl-4-((1-methyl-1H-benzo[d]imidazol-5-yl)oxy)phenyl)-1,2,4a,5-tetrahydro-4H-[1,4]oxazino[4′,3′:4,5][1,4]oxazino[3,2-g]quinazolin-11-amine], the GI50 at Ba/F3 ERBB2 YVMA came to 71 nM. Further, the IC50 was 27.2 nM in experiment [1] and greater than 10000 nM in experiment [2].

Regarding `Cc1cc(Nc2ncnc3cnc4c(c23)OC[C@H]2COCCN42)ccc1Oc1ccc2c(c1)ncn2C` [Compound 122, (R)—N-(3-methyl-4-((1-methyl-1H-benzo[d]imidazol-5-yl)oxy)phenyl)-6a,7,9,10-tetrahydro-6H-[1,4]oxazino[4,3-d]pyrimido[5′,4′:4,5]pyrido[3,2-b][1,4]oxazin-4-amine], the GI50 on Ba/F3 ERBB2 YVMA turned out to be 30.9 nM. Besides, the figures for the IC50 in experiment [1] and in experiment [2] were 26.4 nM and greater than 10000 nM, respectively.

Consider `Cc1cc(Nc2ncnc3ccc4c(c23)O[C@H]2CCN(C)C[C@H]2N4)ccc1Oc1ccc2c(c1)ncn2C` [Compound 125, (7aR,11aS)-9-methyl-N-(3-methyl-4-((1-methyl-1H-benzo[d]imidazol-5-yl)oxy)phenyl)-7a,8,9,10,11,11a-hexahydro-7H-pyrido[3′,4′:5,6][1,4]oxazino[2,3-f]quinazolin-1-amine], for which the GI50 at Ba/F3 ERBB2 YVMA was found to be 164 nM. Besides, the IC50 in experiment [1] is 58 nM; in experiment [2], greater than 10000 nM.

As to `Cc1cc(Nc2ncnc3cc4c(nc23)N2CCN(C)C[C@H]2CO4)ccc1Oc1cc2ncn(C)c2cn1` [Compound 127, (S)-3-methyl-N-(3-methyl-4-((3-methyl-3H-imidazo[4,5-c]pyridin-6-yl)oxy)phenyl)-1,2,3,4,4a,5-hexahydropyrazino[1,2-d]pyrimido[4′,5′:5,6]pyrido[3,2-b][1,4]oxazin-11-amine], the GI50 on Ba/F3 ERBB2 YVMA was greater than 500 nM. Further, the IC50 in experiment [1] is 828 nM; in experiment [2] it was greater than 10000 nM.

Take `Cc1cc(Nc2ncnc3cnc4c(c23)OC[C@H]2CN(C)CCN42)ccc1Oc1cc2ncn(C)c2cn1` [Compound 128, (R)-8-methyl-N-(3-methyl-4-((3-methyl-3H-imidazo[4,5-c]pyridin-6-yl)oxy)phenyl)-6,6a,7,8,9,10-hexahydropyrazino[1,2-d]pyrimido[5′,4′:4,5]pyrido[3,2-b][1,4]oxazin-4-amine]: on Ba/F3 ERBB2 YVMA, the GI50 came out at 211 nM. Moreover, the IC50 in experiment [1] was 35.3 nM; in experiment [2], greater than 10000 nM.

As to `Cc1cc(Nc2ncnc3cnc4c(c23)OC[C@H]2CNCCN42)ccc1Oc1ccc2c(c1)ncn2C` [Compound 130, (R)—N-(3-methyl-4-((1-methyl-1H-benzo[d]imidazol-5-yl)oxy)phenyl)-6,6a,7,8,9,10-hexahydropyrazino[1,2-d]pyrimido[5′,4′:4,5]pyrido[3,2-b][1,4]oxazin-4-amine], the GI50 at Ba/F3 ERBB2 YVMA came to 170 nM. Moreover, the values for the IC50 in experiment [1] and in experiment [2] were 65 nM and greater than 10000 nM, respectively.

With `Cc1cc(Nc2ncnc3cnc4c(c23)O[C@H]2CCN(C)C[C@H]2N4C)ccc1Oc1ccc2c(c1)ncn2C` [Compound 131, (7aR,11aS)-7,9-dimethyl-N-(3-methyl-4-((1-methyl-1H-benzo[d]imidazol-5-yl)oxy)phenyl)-7a,8,9,10,11,11a-hexahydro-7H-pyrido[4,3-b]pyrimido[5′,4′:4,5]pyrido[2,3-e][1,4]oxazin-1-amine], at Ba/F3 ERBB2 YVMA, the GI50 came to 87.1 nM. Besides, the values for the IC50 in experiment [1] and in experiment [2] were 32.7 nM and greater than 10000 nM, respectively.

Regarding `Cc1cc(Nc2ncnc3cnc4c(c23)O[C@H]2CCNC[C@H]2N4C)ccc1Oc1ccc2c(c1)ncn2C` [Compound 132, (7aR,11aS)-7-methyl-N-(3-methyl-4-((1-methyl-1H-benzo[d]imidazol-5-yl)oxy)phenyl)-7a,8,9,10,11,11a-hexahydro-7H-pyrido[4,3-b]pyrimido[5′,4′:4,5]pyrido[2,3-e][1,4]oxazin-1-amine], the GI50 on Ba/F3 ERBB2 YVMA was greater than 500 nM. The IC50 in experiment [1] was 307 nM; in experiment [2] it was greater than 10000 nM.

As for `Cc1cc(Nc2ncnc3cnc4c(c23)O[C@@H]2CCN(C)C[C@H]2N4C)ccc1Oc1ccc2c(c1)ncn2C` [Compound 133, (7aR,11aR)-7,9-dimethyl-N-(3-methyl-4-((1-methyl-1H-benzo[d]imidazol-5-yl)oxy)phenyl)-7a,8,9,10,11,11a-hexahydro-7H-pyrido[4,3-b]pyrimido[5′,4′:4,5]pyrido[2,3-e][1,4]oxazin-1-amine], the GI50 at Ba/F3 ERBB2 YVMA was found to be 60.1 nM. The IC50 is 41.9 nM in experiment [1] and greater than 10000 nM in experiment [2].

As to `Cc1cc(Nc2ncnc3ccc4c(c23)O[C@@H]2CCNC[C@@H]2N4C)ccc1Oc1ccc2c(c1)ncn2C` [Compound 134, (7aS,11aR)-7-methyl-N-(3-methyl-4-((1-methyl-1H-benzo[d]imidazol-5-yl)oxy)phenyl)-7a,8,9,10,11,11a-hexahydro-7H-pyrido[3′,4′:5,6][1,4]oxazino[2,3-f]quinazolin-1-amine], at Ba/F3 ERBB2 YVMA, the GI50 was greater than 500 nM. Moreover, the IC50 amounted to 113 nM in experiment [1] and 727 nM in experiment [2].

For the compound `Cc1cc(Nc2ncnc3cnc4c(c23)O[C@@H]2CCNC[C@H]2N4C)ccc1Oc1ccc2c(c1)ncn2C` [Compound 135, (7aR,11aR)-7-methyl-N-(3-methyl-4-((1-methyl-1H-benzo[d]imidazol-5-yl)oxy)phenyl)-7a,8,9,10,11,11a-hexahydro-7H-pyrido[4,3-b]pyrimido[5′,4′:4,5]pyrido[2,3-e][1,4]oxazin-1-amine], the GI50 at Ba/F3 ERBB2 YVMA was determined as 88.9 nM. The half-maximal inhibitory concentration (IC50) in experiment [1] was 56.1 nM; in experiment [2], greater than 10000 nM.
